How the values were obtained:
[1] = system: A. tuberculatus F1(R) hybrid (maternal parent R); assay: Herbicide dose-response on whole plants, F1(R) line; type: in vivo, Amaranthus tuberculatus (waterhemp); conditions: for GR50 (growth reduction by 50%) F1(R): F1(R) line
[2] = system: A. tuberculatus PPO2L with glycine at position 210 expressed in E. coli SASX38; type: cell-based; conditions: LB with lactofen (100 nM, FIG. 6), 37° C., 14 hrs
[3] = system: A. tuberculatus F1(S) hybrid (maternal parent S); assay: Herbicide dose-response on whole plants, F1(S) line; type: in vivo, Amaranthus tuberculatus (waterhemp)

Structure (SMILES)	GR50 (growth reduction by 50%) F1(R) ([1]; 10 DAT)	GR50 (growth reduction by 50%) F1(R) ([1]; 15 DAT)	fold higher doses survived compared with S plants ([1]; lines heterozygous for resistance vs S plants (FIG. 2; Table 2))	growth of E. coli on lactofen-supplemented medium [2]	GR50 (growth reduction by 50%) F1(S) ([3]; 10 DAT)	GR50 (growth reduction by 50%) F1(S) ([3]; 15 DAT)
CCOC(=O)C(C)OC(=O)c1cc(Oc2ccc(C(F)(F)F)cc2Cl)ccc1[N+](=O)[O-] (racemic) [Lactofen, (±)-2-ethoxy-1-methyl-2-oxoethyl 5-{2-chloro-4-(trifluoromethyl)phenoxy}-2-nitrobenzoate]	0.7 g ai ha^−1	12 g ai ha^−1	31 fold	dramatically inhibited growth	1.6 g ai ha^−1	13 g ai ha^−1
O=C(O)c1cc(Oc2ccc(C(F)(F)F)cc2Cl)ccc1[N+](=O)[O-] [Acifluorfen, 5-{2-chloro-4-(trifluoromethyl)phenoxy}-2-nitrobezoic acid]	3.8 g ai ha^−1	–	–	–	4.1 g ai ha^−1	–
